# “And” between values parts separate entries of the source, which are not always exact repeats. Equal entries are not always repeated.
# Legend:
# Varroa destructor [1] = experiment: Experiment 9 artificial swarms: mite fall; format: in vivo; conditions: 25 mM or 50 mM
# Description: Six artificial swarms were fed with sucrose/LiCl after a starving phase of several hours. LiCl was dissolved in sucrose at final concentrations of 25 mM and 50 mM. Each artificial swarm received 500 ml of the sucrose/LiCl mixture in a feeding balloon. The total volume of sucrose/LiCl solution was consumed by the bees. Mite fall was monitored for 7 days. Afterwards, bees were treated with Perizin® to assess the number of remaining mites.
# Varroa destructor [2] = experiment: Experiment 7 mini-hives (2000 to 3000 bees), semi-field conditions; format: in vivo; conditions: remaining mites killed with Perizin and counted
# Description: In order to investigate if the miticidal effect of LiCl can also be detected under semi-field conditions, so-called “mini-hives” consisting of 2000 to 3000 bees each were treated with LiCl.
# LiCl was dissolved in 70% sucrose to final concentrations of 2 mM, 10 mM and 25 mM. Each concentration was replicated 6 times and fed to the bees for 23 days. Dead mites were documented daily. After 23 days of LiCl treatment, remaining mites were killed with Perizin® (commercial product containing the active ingredient coumaphos) and counted (see Table 4 “Remaining mites”).
# Varroa mites = experiment: Experiment 5 cage comparison of LiCl, NaCl and MgCl2: dead mites; format: in vivo, Varroa destructor
# Description: (§1) In a further experiment LiCl, NaCl and MgCl2 were selected and their acaricidal activity compared. The experiment was performed in cages of 50 bees, to each of which 25 mites were added. Bees in control cages received sucrose only. LiCl, NaCl or MgCl2 were added to 70% sucrose solutions at a final concentration of 25 mM each and fed to the bees for seven days. Survival rate of bees and mites were monitored daily. Dead bees and mites were removed from the cages.
# (§2) The numbers represent mean values derived from 6 cages. […] Numbers for NaCl, MgCl2 and control represent mean values derived from 3 separate cages.
# Varroa destructor [3] = experiment: Experiment 2 cage test (50 bees, 20 mites): dead mites; format: in vivo; conditions: 25 mM in 70% sucrose
# Description: (§6) The next set of experiments was carried out in plastic container with 50 bees and 20 mites each. Bees were fed the same amount of unspecific dsRNA that has been used in previous assays in 70% sucrose solution, LiCl at a concentration of 25 mM in 70%, sucrose solution, and 70% sucrose solution only.
# bees [4] = conditions: 50 bees per cage, mean of 6 cages (LiCl) or 3 cages
# Description: as §1, §2
# bees [5] = experiment: Experiment 3 dose response cage test (50 bees, 25 mites): bee survival and health; format: in vivo, Apis mellifera
# Description: (§3) LiCl was added to 70% sucrose solution to final concentrations of 16 μM, 80 μM, 400 μM, 2 mM, 10 mM, 50 Mm, and 250 mM, respectively. 2 ml of the respective solution was fed to the bees, if the sucrose/LiCl solution was entirely ingested additional sucrose syrup was offered ad libidum. Uptake of LiCl solution as well as survival rate of bees and mites was monitored 3 times daily (morning, noon, evening). Additionally, the healthiness of bees was scored based on characteristic behavioral features. LiCl was administered until all mites were dead, and the experiment continued with plain sucrose syrup to record the response of bees over the entire 2 weeks of the experiment. For control bees treated with sucrose syrup only, 9 mites died within the course of the experiment with even timely distribution of the events, indicating natural death of mites. 26 bees died in the same period of time. In view of the life span of a worker bee (4 weeks) this relates to the natural death rate that can be expected in a time span of 14 days. However, 12 bees were lost in a single day equaling almost 50% of the total bee loss in this control experiment. […] For that reasons the sudden loss of bees on day 14 is considered to result from a mistake in bee treatment as feeding inappropriate amounts of sucrose syrup. (See FIG. 4, dotted red line)
# (§4) Additionally, we set out to test activity of a single dose on mite viability. Sucrose with 25 mM LiCl was fed to a cage of 50 bees infested with 25 mites and monitored as described above. […] As such, a single dose of LiCl can be used to kill mites under the described conditions.
# (§5) To explore the upper limit of dosage and limits of tolerability of bees we fed sucrose containing 100 mM of LiCl as only food source over 14 days. […] In view of the latter results the effective window for concentration and administration and regimen of LiCl is sufficiently large to elevate low but effective concentrations (10 mM) more than 10 fold or prolong the time of administration substantially without negative impact on bee health.
# honey bee larvae = experiment: Experiment 8 larval development in vitro; format: in vivo, Apis mellifera
# Description: In order to assess the effect of LiCl on larval development in vitro, larvae were obtained by caging the queen for 24 h on broodless combs in the colony. After 5 to 6 days when the larvae reached the age of about 48 h they were transferred to petri dishes filled with larval food. The petri dishes were placed in plastic boxed filled with 8% sulfuric acid in order to prevent fungi infection and kept in a chamber at 34° C. and 95% relative humidity. The larvae were fed as needed with a mixture consisting of 53% royal jelly, 4% glucose, 8% fructose, 1% yeast extract and water (control). For samples treated with LiCl, 10 mM, 25 mM or 50 mM LiCl were added to the mixture. Prior to the pupa phase, the larvae were placed on a tissue for defecating which occurred approximately on day 9. Afterwards larvae were placed in well plates until hatching. Larvae mortality was monitored on a daily basis.
# Varroa destructor [6] = experiment: Experiment 3 dose response cage test (50 bees, 25 mites): mite survival; format: in vivo
# Description: as §3, §4, §5
# bees [7] = conditions: 25 mM in 70% sucrose; 50 bees
# Description: as §6
# [8] = 25 mM in 70% sucrose for seven days
# [9] = 25 mM in 70% sucrose for seven days, 25 mites per cage, mean of 6 cages (LiCl) or 3 cages
# [10] = 100 mM as only food source over 14 days
# [11] = 250 mM in 70% sucrose, 25 mites
smiles,measurement,setting,value
"[Cl-].[Li+] [LiCl, lithium chloride]",acaricidal efficacies for all six swarms,Varroa destructor [1],above 80%
same,Remaining mites,Varroa destructor [2]; 2 mM in 70% sucrose for 23 days,234
same,Remaining mites,Varroa destructor [2]; 10 mM in 70% sucrose for 23 days,54
same,Remaining mites,Varroa destructor [2]; 25 mM in 70% sucrose for 23 days,24
same,acaricidal effect,Varroa mites; [8],strong acaricidal effect
same,"Number of dead mites, Day 1",Varroa mites; [9],0.3
same,"Number of dead mites, Day 2",Varroa mites; [9],2.2
same,"Number of dead mites, Day 3",Varroa mites; [9],19.2
same,"Number of dead mites, Day 4",Varroa mites; [9],3.0
same,"Number of dead mites, Day 5",Varroa mites; [9],0.3
same,"Number of dead mites, Day 6",Varroa mites; [9],0.0
same,"Number of dead mites, Day 7",Varroa mites; [9],0.0
same,"Number of dead mites, Sum","Varroa mites; 25 mM in 70% sucrose, days 1-7, 25 mites per cage, mean of 6 cages (LiCl) or 3 cages",25.0
same,mites dead after 24 h,Varroa destructor [3],4 mites
same,mites dead after 48 h,Varroa destructor [3],15 mites
same,mites dead after 72 h,Varroa destructor [3],20 mites
same,"Number of dead bees, Day 1",bees [4]; [8],0.2
same,"Number of dead bees, Day 2",bees [4]; [8],0.2
same,"Number of dead bees, Day 3",bees [4]; [8],0.3
same,"Number of dead bees, Day 4",bees [4]; [8],0.8
same,"Number of dead bees, Day 5",bees [4]; [8],0.5
same,"Number of dead bees, Day 6",bees [4]; [8],1.0
same,"Number of dead bees, Day 7",bees [4]; [8],0.2
same,"Number of dead bees, Sum","bees [4]; 25 mM in 70% sucrose, days 1-7",3 and 3.2
same,tolerance by bees,bees [5]; 2 mM over a period of 2 weeks,without pronounced decrease in viability
same,bees that survived the treatment,"bees [5]; 2 mM, 50 bees, 2 weeks",42 bees
same,bees alive at the end of the experiment,"bees [5]; 10 mM, 50 bees, 2 weeks",34 bees
same,tolerability by the bees,"bees [5]; 50 mM, 50 bees",good tolerability
same,bees lost in the timespan of the entire experiment,"bees [5]; 50 mM, 50 bees, 2 weeks",20 bees
same,effect on bees,bees [5]; [10],time delayed continuous loss of bees
same,average rate of bee loss,"bees [5]; 250 mM until all mites dead, then sucrose only, 50 bees",3 bees per day
same,bees lost in total,"bees [5]; 250 mM until all mites dead, then sucrose only, 50 bees, 2 weeks",27 bees
same,impact on bee health,"bees [5]; single dose of sucrose with 25 mM, entire experiment",no negative impact on bee health
same,Survival rate (%) of larvae or pupae,honey bee larvae; 10 mM added to larval food,0%
same,time in which all larvae were lost,"honey bee larvae; 10 mM, 25 mM or 50 mM added to larval food",≤ 72 h
same,Survival rate (%) of larvae or pupae,honey bee larvae; 25 mM added to larval food,0%
same,Survival rate (%) of larvae or pupae,honey bee larvae; 50 mM added to larval food,0%
same,mites that survived the treatment,"Varroa destructor [6]; 2 mM, 25 mites, 2 weeks",11 mites
same,time in which all mites were killed,"Varroa destructor [6]; 10 mM in 70% sucrose, 25 mites",≤ 48 h
same,additional mites found dead at the end of the experiment,"Varroa destructor [6]; 10 mM, 25 mites",2 mites
same,"dead mites, day 1","Varroa destructor [6]; 10 mM, 25 mites",3 mites
same,"dead mites, day 2","Varroa destructor [6]; 10 mM, 25 mites",10 mites
same,"dead mites, day 3","Varroa destructor [6]; 10 mM, 25 mites",7 mites
same,"dead mites, day 4","Varroa destructor [6]; 10 mM, 25 mites",3 mites
same,time to all mites dead,"Varroa destructor [6]; 50 mM in 70% sucrose, 25 mites",48 h
same,effect on mites,Varroa destructor [6]; [10],effectively killed
same,mites lost between 30 h and 48 h,Varroa destructor [6]; [11],21/25
same,time to loss of all mites,Varroa destructor [6]; [11],≤ 48 h
same,impact on viability of mites,"Varroa destructor [6]; concentrations lower than 2 mM (16 μM, 80 μM, 400 μM), data not shown",only marginally impacted the viability of mites
same,time to eliminate all mites,Varroa destructor [6]; concentrations of 10 mM and higher,≤ 4 days
same,time in which mites were effectively killed,"Varroa destructor [6]; single dose of sucrose with 25 mM, 50 bees, 25 mites",≤ 72 h
same,effect on bees within the first 4 days of treatment,bees [7],not affected
